In patent publication US6964979B2, “R-enantiomers of pyranoindole derivatives and the use thereof for the treatment of hepatitis C virus infection or disease” (Wyeth, priority 2002, dated 2005):

Target: T1, HCV RdRp NS5B d21BK (BK strain, 1b subtype) (Hepatitis C virus genotype 1b, UniProt P26663)
T1 construct: NS5B from the BK strain (1b subtype) is expressed in E. coli as a protein in which the 21 C-terminal amino acids are replaced; made in house; host or cells: E. coli
Assay: Hepatitis C polymerase (NS5B RdRp) inhibition, 33P-GTP incorporation filter assay
Assay type: biochemical
Settings: NS5B d21BK 24 nM, 2 hours at room temperature; read-out: HCV pol IC50
Text: The ability of the compounds of the present invention to inhibit Hepatitis C Polymerase was established by the following experimental procedure:
NS5B from the BK strain (1b subtype) is expressed in E. coli as a protein in which the 21 C-terminal amino acids are replaced with a short linker and a hexahistidine tag ([…]). The purified protein is mixed with radioactive nucleotides and allowed to replicate a heteropolymeric RNA substrate, primed by an endogenous short hairpin, resulting in an approximately 760 nt product. The radioactive product is captured on a filter and quantitated after removal of the unincorporated nucleotides.
(1) Compounds 10 μl at 10 μg/ml in 15% dimethylsulfoxide (DMSO)
• When starting from 100 μg/ml compound stock in […]: • Dispense 5 μl 30% DMSO per well • Dispense 5 μl compound (100 μg/ml) per well. • When starting from 50 μg/ml compound stock in 15% DMSO: • Add 10 μl compound per well. (2) Enzyme Mix:
Add 20 μl enzyme mix into each well of the assay plate. Incubate compound and enzyme at room temperature for 15 minutes. (3) Template Mix—Prepare Ahead
Spin down a tube of RNA (5 μg/tube stored in 75% ethanol and 0.3 M sodium acetate) in a microcentrifuge for 20 minutes. at 4° C. One tube is enough for 1-1.5 plates. Remove as much ethanol from the tube as possible by inverting the tube. Be gentle, pellet RNA may not adhere to the tube. Vacuum dry the RNA. Resuspend the RNA by adding 1 ml of DEPC water, close the cap of the tube tightly. To dissolve RNA, incubate RNA solution on ice for ˜60 minutes and gently vortex. Spin briefly to ensure all RNA solution is down to the bottom of the tube before opening cap. Gently transfer RNA solution into a 5 ml or larger tube. Add another 3 ml of DEPC water (total 4 ml of volume).
Add the following volumes of reagents
Add 20 μl template mix per reaction (i.e. 20 ng of pOF per reaction or ˜3 nM) (4) Incubate reaction at room temperature (22-25° C.) for 2 hours. (5) Stop reaction by adding 50 μl of 170 mM EDTA. • Final concentration of EDTA is 85 mM. (6) Prewet filters of Millipore multiscreen assay plate by adding 200 μl of 0.5 M sodium phosphate buffer, pH 7.0 into each well. Let stand at room temperature for 2-3 minutes. (7) Place the multiscreen filter plate onto a Millipore Manifold and turn on vacuum to allow buffer to flow through. Turn off vacuum. Transfer 80 μl of the reaction product into each well of the filter plate. Let stand for 2-3 minutes. Turn on vacuum to filter reaction product. (8) Turn off vacuum. Add. 200 μl of 0.5 M sodium phosphate buffer, pH 7.0 into each well to wash filter. […]
Percent inhibition is calculated after background subtraction as a percent reduction of activity relative to the positive control (average value of the plate excluding the negative controls). […]

T1 sequence (P26663 2420-2989): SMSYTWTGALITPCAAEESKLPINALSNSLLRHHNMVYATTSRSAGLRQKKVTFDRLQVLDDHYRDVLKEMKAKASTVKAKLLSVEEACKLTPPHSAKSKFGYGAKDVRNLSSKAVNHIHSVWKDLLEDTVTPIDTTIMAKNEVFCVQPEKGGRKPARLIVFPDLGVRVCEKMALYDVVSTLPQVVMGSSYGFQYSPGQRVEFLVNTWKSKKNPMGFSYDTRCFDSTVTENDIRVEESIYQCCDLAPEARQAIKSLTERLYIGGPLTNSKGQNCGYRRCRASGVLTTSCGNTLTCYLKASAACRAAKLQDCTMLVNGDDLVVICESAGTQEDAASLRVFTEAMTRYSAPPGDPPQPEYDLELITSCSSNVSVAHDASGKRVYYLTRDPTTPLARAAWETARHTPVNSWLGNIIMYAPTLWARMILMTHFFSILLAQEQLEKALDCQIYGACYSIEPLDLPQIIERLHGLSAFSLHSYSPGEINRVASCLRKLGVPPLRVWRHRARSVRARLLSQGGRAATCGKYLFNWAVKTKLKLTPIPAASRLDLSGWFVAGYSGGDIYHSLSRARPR

| SMILES | IC50 [nM] |
| --- | --- |
| CCC[C@]1(CC(=O)O)OCCc2c1[nH]c1c(F)ccc(C#N)c21 [Example 2, [(R)-5-cyano-8-fluoro-1-propyl-1,3,4,9-tetrahydropyrano[3,4-b]indol-1-yl]acetic acid] | 440 |
| CCC[C@]1(CC(=O)O)OCCc2c1[nH]c1c(C)cc(F)c(C#N)c21 [Example 4, [(R)-5-cyano-6-fluoro-8-methyl-1-propyl-1,3,4,9-tetrahydropyrano [3,4-b]indol-1-yl]acetic acid] | 80 |
| CCC[C@]1(CC(=O)O)OCCc2c1[nH]c1c(Cl)ccc(Cl)c21 [Example 3, [(R)-5,8-dichloro-1-propyl-1,3,4,9-tetrahydropyrano[3,4-b]indol-1-yl]acetic acid] | 60 |
| CCC[C@]1(CC(=O)O)OCCc2c1[nH]c1c(C)ccc(C#N)c21 [Example 1, [(R)-5-cyano-8-methyl-1-propyl-1,3,4,9-tetrahydropyrano[3,4-b]indol-1-yl]acetic acid] | 330 |
